Results: patent US20130172311A1, “Substituted heterocyclyl benzyl pyrazoles, and use thereof” (BAYER INTELLECTUAL PROPERTY GMBH, priority 2010, published 2013)
Blank lines part the entries; values can stand above or below the compound they belong to.

What was measured:
[1] = system: luciferase reporter under the control of an HIF-responsive sequence in HCT 116 cells; experiment: HIF luciferase assay; type: cell-based; conditions: Homo sapiens, HCT 116 reporter cells, hypoxia chamber (1% O2), 24 h
Protocol: HCT 116 cells were stably transfected with a plasmid which contained a luciferase reporter under the control of an HIF-responsive sequence. These cells were sown in microtitre plates [20 000 cells/cavity in RPMI 1640 medium with 10% foetal calf serum (FCS) and 100 μg/ml of hygromycin]. They were incubated overnight under standard conditions (5% CO2, 21% O2, 37° C., moistened). The following morning the cells were incubated with different concentrations of the test substances (0-10 μmol/l) in a hypoxia chamber (1% O2). After 24 h, Bright Glo reagent (Promega, Wis., USA) was added in accordance with the manufacturer's instructions, and after 5 min the luminescence was measured. Cells which were incubated under normoxia served as background controls.

[2] = Pharmacokinetic parameters after peroral administration in rats; type: in vivo; conditions: for AUCnorm (dose-normalized exposure) / bioavailability: 1-3 mg/kg, solution in Solutol/ethanol/water; for bioavailability: rat, plasma, po, read-out: F (bioavailability)
Protocol: (§1) The substance to be examined was administered to animals (for example mice or rats) intravenously as a solution (for example in corresponding plasma with a small addition of DMSO or in a PEG/ethanol/water mixture), and peroral administration was effected as a solution (for example in Solutol/ethanol/water or PEG/ethanol/water mixtures) or as a suspension (e.g. in tylose), in each case via a gavage. After administration of the substance, blood was taken from the animals at fixed times. The blood was heparinized, then plasma was obtained therefrom by centrifugation. The substance was quantified analytically in the plasma via LC-MS/MS. From the plasma concentration/time plots determined in this way, using an internal standard and with the aid of a validated computer program, the pharmacokinetic parameters, such as AUC (area under the concentration/time curve), Cmax, (maximum plasma concentration), t1/2 (half life), VSS (distribution volume) and CL (clearance), and the absolute and relative bioavailability F and Frei (i.v./p.o. comparison or comparison of suspension to solution after p.o. administration), were calculated.
To determine the active ingredient release from a prodrug compound, the prodrug was administered either intravenously or perorally, as described above, and the concentrations both of the prodrug and of the active ingredient released were quantified in the processed plasma.
The substance to be examined was administered perorally to rats, in each case in amounts between 1 and 3 mg/kg as a solution in Solutol/ethanol/water (40:10:50 or 40:20:40). The kinetic parameters determined for Working Example 1 are shown below by way of example for the inventive compounds [AUCnorm=dose-normalized exposure (area under the concentration/time curve)]:
The second row in this table gives the pharmacokinetic parameters for Example 1, as obtained after peroral administration of the prodrug compound from Example 15 (1 mg/kg of crystalline substance as a tylose suspension in water).

[3] = Pharmacokinetic parameters after intravenous administration in rats; type: in vivo; conditions: rat, plasma, i.v., comparison compound, read-out: CLplasma (plasma clearance) (converted)
Protocol: as §1
The substance to be examined was administered intravenously to rats, in each case in amounts between 0.3 and 1.0 mg/kg as a solution in plasma which contained up to 2% DMSO.

[4] = pH-dependent hydrolysis stability; type: physicochemical; conditions: HPLC area %; for % Example 1 active ingredient: released from prodrug Example 15
Protocol: 0.3 mg of the test substance (prodrug) was weighed into a 2 ml HPLC vial, and 0.6 ml of acetonitrile or acetonitrile/DMSO mixture (with up to 20 percent by volume of DMSO) was added. To dissolve the substance, the sample vessel was placed into an ultrasound bath for approx. 10 seconds. Subsequently, 1.0 ml of the particular aqueous buffer solution was added (commercially available buffer solutions of pH 2, 4, 6.5, 8 and 10) and the sample was treated again in the ultrasound bath. Over a period of 24 hours at 37° C., 5 μl of the sample solution were analysed by HPLC every hour for its content of unchanged prodrug or active ingredient released therefrom by hydrolysis. Quantification was effected via the area percentages of the corresponding HPLC peaks.

[5] = Plasma stability in vitro, rat plasma; type: in vitro ADME; conditions: 37°C
Protocol: (§2) 1 mg of the test substance (prodrug) was weighed into a 2 ml HPLC vial, and 1.5 ml of DMSO and 1 ml of water were added. To dissolve the substance, the sample vessel was placed into an ultrasound bath for approx. 10 seconds. 0.5 ml of rat plasma or human plasma at 37° C. was added to 0.5 ml of this solution. The sample was agitated and approx. 10 μl were taken for a first analysis (time t0). […] The sample was kept at 37° C. over the test period. Characterization and quantification were effected by HPLC.

[6] = Plasma stability in vitro, human plasma; type: in vitro ADME; conditions: 37°C
Protocol: as §2

IC50 [1]: 0.4 nM
Compound: Cc1cc(-c2nc(-c3ccc(C(C)(C)C(F)(F)F)cc3)no2)nn1Cc1cccc(N2CCC(O)CC2)c1 [Example 10, 1-{3-[(5-Methyl-3-{3-[4-(1,1,1-trifluoro-2-methylpropan-2-yl)phenyl]-1,2,4-oxadiazol-5-yl}-1H-pyrazol-1-yl)methyl]phenyl}piperidin-4-ol]

IC50 [1]: 0.4 nM
Compound: Cc1cc(-c2nc(-c3ccc(OC(F)(F)F)cc3)no2)nn1Cc1cccc(N2CCC(C#N)CC2)c1 [Example 11, 1-{3-[(5-Methyl-3-{3-[4-(trifluoromethoxy)phenyl]-1,2,4-oxadiazol-5-yl}-1H-pyrazol-1-yl)methyl]phenyl}piperidine-4-carbonitrile]

IC50 [1]: 0.3 nM
Compound: Cc1cc(-c2nc(-c3ccc(C4(C(F)(F)F)CC4)cc3)no2)nn1Cc1cccc(N2CCC(C#N)CC2)c1 [Example 12, 1-(3-{[5-Methyl-3-(3-{4-[1-(trifluoromethyl)cyclopropyl]phenyl}-1,2,4-oxadiazol-5-yl)-1H-pyrazol-1-yl]methyl}phenyl)piperidine-4-carbonitrile]

IC50 [1]: 0.3 nM
Compound: Cc1cc(-c2nc(-c3ccc(C(C)(C)C(F)(F)F)cc3)no2)nn1Cc1cccc(N2CCC(C#N)CC2)c1 [Example 13, 1-{3-[(5-Methyl-3-{3-[4-(1,1,1-trifluoro-2-methylpropan-2-yl)phenyl]-1,2,4-oxadiazol-5-yl}-1H-pyrazol-1-yl)methyl]phenyl}piperidine-4-carbonitrile]

IC50 [1]: 0.5 nM
Compound: Cc1cc(-c2nc(-c3ccc(SC(F)(F)F)cc3)no2)nn1Cc1cccc(N2CCC(O)CC2)c1 [Example 14, 1-(3-{[5-Methyl-3-(3-{4-[(trifluoromethyl)sulphanyl]phenyl}-1,2,4-oxadiazol-5-yl)-1H-pyrazol-1-yl]methyl}phenyl)piperidin-4-ol]

% Example 15 prodrug ([5]; 0 h): 95%
% Example 15 prodrug ([5]; 0.5 h): 87%
% Example 15 prodrug ([5]; 1 h): 80%
% Example 15 prodrug ([5]; 1.5 h): 72%
% Example 15 prodrug ([5]; 2 h): 69%
% Example 15 prodrug ([5]; 4 h): 52%
melting point: 117 °C
% Example 15 prodrug ([6]; 0 h): 97%
% Example 15 prodrug ([6]; 0.5 h): 96%
% Example 15 prodrug ([6]; 1 h): 93%
% Example 15 prodrug ([6]; 1.5 h): 91%
% Example 15 prodrug ([6]; 2 h): 89%
% Example 15 prodrug ([6]; 4 h): 81%
prodrug compound in plasma ([2]; p.o., 1 mg/kg as tylose suspension, all times examined): not detectable
% Example 15 prodrug ([4]; pH 2, 37°C, after 12 h): 89%
% Example 15 prodrug ([4]; pH 4, 37°C, after 12 h): 89%
% Example 15 prodrug ([4]; pH 6.5, 37°C, 0 h): 94%
% Example 15 prodrug ([4]; pH 6.5, 37°C, 2 h): 91%
% Example 15 prodrug ([4]; pH 6.5, 37°C, 4 h): 87%
% Example 15 prodrug ([4]; pH 6.5, 37°C, 6 h): 84%
% Example 15 prodrug ([4]; pH 6.5, 37°C, 12 h): 73%
% Example 15 prodrug ([4]; pH 6.5, 37°C, 24 h): 56%
% Example 15 prodrug ([4]; pH 8, 37°C, after 12 h): 64%
% Example 15 prodrug ([4]; pH 10, 37°C, after 12 h): 0%
Compound: Cc1cc(-c2nc(-c3ccc(OC(F)(F)F)cc3)no2)nn1Cc1cccc(N2CC(OC(=O)CN(C)C)C2)c1 [Example 15, 1-{3-[(5-Methyl-3-{3-[4-(trifluoromethoxy)phenyl]-1,2,4-oxadiazol-5-yl}-1H-pyrazol-1-yl)methyl]phenyl}azetidin-3-yl N,N-dimethylglycinate]

More lines, now with the values behind:

Compound: Cc1ccc(Cn2nc(-c3nc(-c4ccc(OC(F)(F)F)cc4)no3)cc2C)cc1 [Example 1 in WO 2008/141731-A2, 5-[5-methyl-1-(4-methylbenzyl)-1H-pyrazol-3-yl]-3-[4-(trifluoromethoxy)phenyl]-1,2,4-oxadiazole, reference compound]
IC50 ([1]; comparison compound): 30 nM
AUCnorm (dose-normalized exposure) ([2]; p.o.): 1.9 kg·h/L
bioavailability [2]: 74%
clearance [3]: 6.67 mL/min/kg

Compound: Cc1cc(-c2nc(-c3ccc(OC(F)(F)F)cc3)no2)nn1Cc1cccc(N2CC(O)C2)c1 [Example 1, 1-{3-[(5-Methyl-3-{3-[4-(trifluoromethoxy)phenyl]-1,2,4-oxadiazol-5-yl}-1H-pyrazol-1-yl)methyl]phenyl}azetidin-3-ol]
IC50 [1]: 0.7 nM
AUCnorm (dose-normalized exposure) ([2]; p.o.): 0.43 kg·h/L
AUCnorm of Example 1 after administration of prodrug Example 15 ([2]; p.o., prodrug Example 15, 1 mg/kg crystalline substance as tylose suspension in water): 0.35 kg·h/L
bioavailability [2]: 68%
% Example 1 active ingredient ([4]; pH 2, 37°C, after 12 h): 6%
% Example 1 active ingredient ([4]; pH 4, 37°C, after 12 h): 9%
% Example 1 active ingredient ([4]; pH 6.5, 37°C, 0 h): 3%
% Example 1 active ingredient ([4]; pH 6.5, 37°C, 2 h): 7%
% Example 1 active ingredient ([4]; pH 6.5, 37°C, 4 h): 10%
% Example 1 active ingredient ([4]; pH 6.5, 37°C, 6 h): 13%
% Example 1 active ingredient ([4]; pH 6.5, 37°C, 12 h): 22%
% Example 1 active ingredient ([4]; pH 6.5, 37°C, 24 h): 35%
% Example 1 active ingredient ([4]; pH 8, 37°C, after 12 h): 30%
% Example 1 active ingredient ([4]; pH 10, 37°C, after 12 h): 78%

Compound: Cc1cc(-c2nc(-c3ccc(C4(C(F)(F)F)CC4)cc3)no2)nn1Cc1cccc(N2CC(O)C2)c1 [Example 2, 1-(3-{[5-Methyl-3-(3-{4-[1-(trifluoromethyl)cyclopropyl]phenyl}-1,2,4-oxadiazol-5-yl)-1H-pyrazol-1-yl]methyl}phenyl)azetidin-3-ol]
IC50 [1]: 0.6 nM

Compound: Cc1cc(-c2nc(-c3ccc(C(C)(C)C(F)(F)F)cc3)no2)nn1Cc1cccc(N2CC(O)C2)c1 [Example 3, 1-{3-[(5-Methyl-3-{3-[4-(1,1,1-trifluoro-2-methylpropan-2-yl)phenyl]-1,2,4-oxadiazol-5-yl}-1H-pyrazol-1-yl)methyl]phenyl}azetidin-3-ol]
IC50 [1]: 0.6 nM

Compound: Cc1cc(-c2nc(-c3ccc(OC(F)(F)F)cc3)no2)nn1Cc1cccc(N2CCC(O)CC2)c1 [Example 8, 1-{3-[(5-Methyl-3-{3-[4-(trifluoromethoxy)phenyl]-1,2,4-oxadiazol-5-yl}-1H-pyrazol-1-yl)methyl]phenyl}piperidin-4-ol]
IC50 [1]: 0.6 nM

Compound: Cc1cc(-c2nc(-c3ccc(C4(C(F)(F)F)CC4)cc3)no2)nn1Cc1cccc(N2CCC(O)CC2)c1 [Example 9, 1-(3-{[5-Methyl-3-(3-{4-[1-(trifluoromethyl)cyclopropyl]phenyl}-1,2,4-oxadiazol-5-yl)-1H-pyrazol-1-yl]methyl}phenyl)piperidin-4-ol]
IC50 [1]: 0.5 nM
